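Briefly, cells in 96-well plates were exposed to five compound concentrations for 48 h, and endpoints were estimated by linear interpolation. Abbreviation: GI50, concentration required for 50% inhibition of growth.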 Calls of active or inactive are those of the source. Rule as the data show it: active = GI50 up to about 1.1 µM and inactive = higher.
Assays:
Experiment in all cases: NCI-60 cell line screen, 48 h
RPMI-8226 = test system: RPMI-8226
Malme-3M = test system: Malme-3M
SF-268 = test system: SF-268
RXF 393 = test system: RXF 393
A549 = test system: A549
NCI-H226 = test system: NCI-H226
HOP-18 = test system: HOP-18
XF498 = test system: XF498
K562 = test system: K562
MOLT-4 = test system: MOLT-4
OVCAR-4 = test system: OVCAR-4
M19-MEL = test system: M19-MEL
CCRF-CEM = test system: CCRF-CEM
UACC-62 = test system: UACC-62
UACC-257 = test system: UACC-257
DU-145 = test system: DU-145
SNB-19 = test system: SNB-19
SNB-75 = test system: SNB-75
SNB-78 = test system: SNB-78

With `COc1cc(C(=O)c2cocc2C(=O)c2ccc3c(c2)OCO3)cc(OC)c1OC` the GI50 (RPMI-8226) was 0.628 µM (active), the GI50 (Malme-3M) was 0.312 µM (active) and the GI50 (SF-268) was 0.802 µM (active). For the same compound, the GI50 (RXF 393) was 0.67 µM (active), the GI50 (A549) was 5.26 µM (inactive) and the GI50 (NCI-H226) was 1.8 µM (inactive). For the same compound, the GI50 (HOP-18) was > 51.1 µM (inactive), the GI50 (XF498) was 1.34 µM (inactive) and the GI50 (K562) was 0.151 µM (active). For the same compound, the GI50 (MOLT-4) was 0.991 µM (active), the GI50 (OVCAR-4) was 18.5 µM (inactive) and the GI50 (M19-MEL) was 2.96 µM (inactive). For the same compound, the GI50 (CCRF-CEM) was 0.444 µM (active), the GI50 (UACC-62) was 0.311 µM (active) and the GI50 (UACC-257) was 0.531 µM (active). For the same compound, the GI50 (DU-145) was 1.17 µM (inactive), the GI50 (SNB-19) was 0.933 µM (active) and the GI50 (SNB-75) was 0.336 µM (active).
For `Nc1c(Br)c(=O)[nH]c(=O)n1COCCO`, the GI50 (Malme-3M) was > 100 µM (inactive), the GI50 (SF-268) was > 100 µM (inactive) and the GI50 (RXF 393) was > 100 µM (inactive). The GI50 (A549) was > 100 µM (inactive), the GI50 (HOP-18) was > 100 µM (inactive) and the GI50 (SNB-78) was > 100 µM (inactive). For the same compound, the GI50 (XF498) was > 100 µM (inactive), the GI50 (K562) was > 100 µM (inactive) and the GI50 (MOLT-4) was > 100 µM (inactive). The GI50 (OVCAR-4) was > 100 µM (inactive), the GI50 (M19-MEL) was > 100 µM (inactive) and the GI50 (CCRF-CEM) was > 100 µM (inactive). The GI50 (UACC-62) was > 100 µM (inactive), the GI50 (UACC-257) was > 100 µM (inactive) and the GI50 (SNB-19) was > 100 µM (inactive). For the same compound, the GI50 (SNB-75) was > 100 µM (inactive).
`COc1nc2c(OC)cccc2c(OC)c1C=O` was tested, and the GI50 (RPMI-8226) was > 100 µM (inactive), the GI50 (Malme-3M) was > 100 µM (inactive) and the GI50 (RXF 393) was > 100 µM (inactive). For the same compound, the GI50 (A549) was > 100 µM (inactive), the GI50 (NCI-H226) was > 100 µM (inactive) and the GI50 (HOP-18) was > 100 µM (inactive). For the same compound, the GI50 (XF498) was 18.8 µM (inactive), the GI50 (K562) was 53.7 µM (inactive) and the GI50 (MOLT-4) was 61.5 µM (inactive). The GI50 (M19-MEL) was > 100 µM (inactive), the GI50 (CCRF-CEM) was > 100 µM (inactive) and the GI50 (UACC-62) was > 100 µM (inactive). For the same compound, the GI50 (UACC-257) was > 100 µM (inactive), the GI50 (SNB-19) was > 100 µM (inactive) and the GI50 (SNB-75) was 30.8 µM (inactive).
`CC(C)(C)CC(C)(C)c1cc2c(O)c(c1)Cc1cc(C(C)(C)CC(C)(C)C)cc(c1O)Cc1cc(C(C)(C)CC(C)(C)C)cc(c1O)Cc1cc(C(C)(C)CC(C)(C)C)cc(c1O)Cc1cc(C(C)(C)CC(C)(C)C)cc(c1O)C2` was tested, and the GI50 (RPMI-8226) was > 100 µM (inactive), the GI50 (Malme-3M) was > 100 µM (inactive) and the GI50 (SF-268) was > 100 µM (inactive). The GI50 (RXF 393) was > 100 µM (inactive), the GI50 (A549) was > 100 µM (inactive) and the GI50 (SNB-78) was > 100 µM (inactive). The GI50 (XF498) was > 100 µM (inactive), the GI50 (K562) was > 100 µM (inactive) and the GI50 (MOLT-4) was > 100 µM (inactive). The GI50 (OVCAR-4) was > 100 µM (inactive), the GI50 (M19-MEL) was > 100 µM (inactive) and the GI50 (CCRF-CEM) was > 100 µM (inactive). For the same compound, the GI50 (UACC-62) was > 100 µM (inactive), the GI50 (UACC-257) was > 100 µM (inactive) and the GI50 (SNB-19) was > 100 µM (inactive). The GI50 (SNB-75) was > 100 µM (inactive).
For `Cc1ccc(C)c(N2C(=O)C(=O)C(c3nc4ccccc4s3)/C(=N/N)C2=O)c1` (centres undefined), the GI50 (RPMI-8226) was > 100 µM (inactive), the GI50 (Malme-3M) was > 100 µM (inactive) and the GI50 (SF-268) was > 100 µM (inactive). For the same compound, the GI50 (RXF 393) was > 100 µM (inactive), the GI50 (A549) was > 100 µM (inactive) and the GI50 (NCI-H226) was > 100 µM (inactive). For the same compound, the GI50 (SNB-78) was > 100 µM (inactive), the GI50 (XF498) was > 100 µM (inactive) and the GI50 (K562) was > 100 µM (inactive). The GI50 (MOLT-4) was > 100 µM (inactive), the GI50 (OVCAR-4) was > 46.9 µM (inactive) and the GI50 (M19-MEL) was > 20.2 µM (inactive). The GI50 (CCRF-CEM) was > 100 µM (inactive), the GI50 (UACC-62) was > 100 µM (inactive) and the GI50 (UACC-257) was > 27.9 µM (inactive). For the same compound, the GI50 (SNB-19) was > 100 µM (inactive) and the GI50 (SNB-75) was > 100 µM (inactive).
`O=C(O)Cc1ccc2c(c1O)C(=O)c1c(ccc(CC(=O)O)c1O)C2=O` was tested, and the GI50 (RPMI-8226) was > 100 µM (inactive), the GI50 (Malme-3M) was > 100 µM (inactive) and the GI50 (SF-268) was > 100 µM (inactive). The GI50 (A549) was > 100 µM (inactive), the GI50 (NCI-H226) was > 100 µM (inactive) and the GI50 (HOP-18) was > 100 µM (inactive). For the same compound, the GI50 (SNB-78) was > 100 µM (inactive), the GI50 (XF498) was > 100 µM (inactive) and the GI50 (K562) was > 100 µM (inactive). For the same compound, the GI50 (MOLT-4) was > 100 µM (inactive), the GI50 (OVCAR-4) was > 100 µM (inactive) and the GI50 (M19-MEL) was > 100 µM (inactive). The GI50 (CCRF-CEM) was > 100 µM (inactive), the GI50 (UACC-257) was > 100 µM (inactive) and the GI50 (SNB-19) was > 100 µM (inactive). For the same compound, the GI50 (SNB-75) was > 100 µM (inactive).
`CCN(CC)c1ccc(/N=N/c2ccc(-c3nc4cccnc4o3)cc2)cc1` was tested, and the GI50 (RPMI-8226) was > 100 µM (inactive), the GI50 (Malme-3M) was > 100 µM (inactive) and the GI50 (SF-268) was > 100 µM (inactive). The GI50 (RXF 393) was > 100 µM (inactive), the GI50 (A549) was > 100 µM (inactive) and the GI50 (NCI-H226) was > 100 µM (inactive). For the same compound, the GI50 (SNB-78) was > 100 µM (inactive), the GI50 (XF498) was > 100 µM (inactive) and the GI50 (K562) was > 100 µM (inactive). For the same compound, the GI50 (MOLT-4) was > 100 µM (inactive), the GI50 (OVCAR-4) was > 100 µM (inactive) and the GI50 (M19-MEL) was > 100 µM (inactive). For the same compound, the GI50 (CCRF-CEM) was > 100 µM (inactive), the GI50 (UACC-62) was > 100 µM (inactive) and the GI50 (UACC-257) was > 100 µM (inactive). The GI50 (SNB-19) was > 100 µM (inactive) and the GI50 (SNB-75) was > 100 µM (inactive).
`COC(=O)C12C3C=CC(O3)C1C1C=CC2O1` (centres undefined) was tested, and the GI50 (RPMI-8226) was > 100 µM (inactive), the GI50 (Malme-3M) was > 100 µM (inactive) and the GI50 (SF-268) was > 100 µM (inactive). For the same compound, the GI50 (RXF 393) was > 100 µM (inactive), the GI50 (A549) was > 100 µM (inactive) and the GI50 (NCI-H226) was > 100 µM (inactive). For the same compound, the GI50 (HOP-18) was > 100 µM (inactive), the GI50 (XF498) was > 100 µM (inactive) and the GI50 (K562) was > 100 µM (inactive). The GI50 (MOLT-4) was > 100 µM (inactive), the GI50 (M19-MEL) was > 100 µM (inactive) and the GI50 (CCRF-CEM) was > 100 µM (inactive). The GI50 (UACC-257) was > 100 µM (inactive) and the GI50 (SNB-19) was > 100 µM (inactive).
